# Measurements: patent publication US20230235374A1, “High Throughput Assays for Detecting Translation Readthrough Inducers” (The Trustees of the University of Pennsylvania, priority 2021, published 2023)
# Experiments:
# [1] = system: POST5 complex (eRF1 & 3 peptide release); experiment: Fluorometer anisotropy measurement of POST5 complex Stop IRES-Lys*; format: biochemical; conditions: 0.1 μM POST5, eRF1 0.1 μM, eRF3 0.2 μM, GTP 2.0 mM, 25° C.
# Description: Fluorometer measurements of POST5 complex Stop IRES-Lys* included the following treatment methods and components:
# POST5 complex was treated with ternary complexes of release factor 1 and 3 and GTP. Lys was labeled with the fluorescent label Atto647. Conditions for the assay were as follows: at 25° C., Buffer condition included 0.1 μM POST 5. Release factor 1 and 3 (eRF1 & 3) POST 5 condition included 0.1 μM POST5; eRF1 at 0.1 μM; eRF3 at 0.2 μM; and GTP at 2 mM. Release factor 1 and 3 (eRF1 & 3) POST 5 and ataluren condition included 0.1 μM POST5; eRF1 at 0.1 μM; eRF3 at 0.2 μM; GTP at 2.0 mM; and Ataluren at […].
# [2] = system: RNA of Stop-POST5 and 80S.IRES complexes; experiment: LASER-seq mutational profiling of AzAt photoincorporation sites; format: binding, shrimp (Artemia salina); conditions: 300 μM AzAt
# Description: RNA-Seq procedures employed closely follow those published (Zinshteyn et al., Nucleic Acids Res, 47, 43-55 (2019); McClary et al., Cell Chem Biol, 24, 605-613 e605 (2017)) except as noted.
# Library preparation. RNA-seq libraries were prepared for PAL, PRE, UV, and NUL samples, as defined in Results, of Stop-POST5 and 80S.IRES complexes, using published procedures (Zinshteyn et al., Nucleic Acids Res, 47, 43-55 (2019); McClary et al., Cell Chem Biol, 24, 605-613 e605 (2017)) with the slight modifications that a 12% 0.13 M Tris/45 mM Borate/2.5 mM EDTA (pH 7.6))—Urea PAGE gel replaced a 10% PAGE gel and the selected RNA fragment size was 40-70 bp rather than 60-70 bp. In brief, RNA was extracted and randomly fragmentated by ZnCl2 (Sigma). After separation on the TBE-Urea PAGE gel, RNA fragments, visualized by ethidium bromide staining (used for all RNA gels) were sliced and extracted from the gel by crushing the gel and vigorously shaking (1400 rpm) at 70° C. in 400 μL of water for 15 min. The 3′ ends were dephosphorylated by T4 Polynucleotide Kinase (New England Biolab). The miRNA cloning linker 2 (5′App/[…]/3′ddC (SEQ ID NO: 11), Integrated DNA Technologies) was used as the universal 3′ linker and pre-adenylated using the 5′ DNA Adenylation Kit (New England Biolab) with the provided protocol. Reverse transcription, self-circularization, and PCR amplification were performed essentially the same as previously described (McClary et al., Cell Chem Biol, 24, 605-613 e605 (2017)). Library sequencing was performed on Illumina NextSeq with single-end mode for up to 75 bp read length.
# Data processing. Sequencing reads were processed by Cutadapt 2.10 (cutadapt.readthedocs.io/en/stable/) to remove 3′ end linkers and then inputted into Shapemapper2 (Busan et al., RNA, 24(2):143-148 (2018)) to count the mutations and effective sequencing reads, using the STAR Aligner mode (Dobin et al., STAR: ultrafast universal RNA-seq aligner. Bioinformatics. 29:15-21 (2013)). The mutation rate of each nucleotide was calculated by dividing the number of the reads containing the mutations by the total number of reads, outputted as N.
# For the PAL sample, the mutation rate fold change was calculated by dividing the mutation rate of the PAL sample by the mutation rate of the PRE sample. The average mutation count was calculated by averaging the number of mutations of the PAL and PRE samples. MA plots (FIG. 3A, FIG. 3B, FIG. 3C and FIG. 3D) were charted by plotting the mutation rate fold change of each nucleotide as a function of the average mutation count of each nucleotide. To determine possibly significant sites of AzAt labeling, the dataset was first screened for points that meet the criteria of a mutation rate fold change ≥1.5 and an average mutation count ≥100. Points meeting these criteria were further screened with Z-factor >0 and p-value <0.05 to determine statistical significance. The Z-factor (z) was calculated using the following equation
# For each complex LASER-Seq was carried out on four types of samples, denoted PAL, PRE, UV, and NUL. PAL samples were prepared by photoaffinity labeling of complexes with 300 μM AzAt, a concentration close to saturating for photoincorporation (FIG. 2C). PRE samples were prepared using separately prephotolyzed AzAt that was re-irradiated in the presence of complexes. UV and NUL samples were prepared in the absence of AzAt by either subjecting complexes to uv irradiation (UV) or just analyzing complexes directly (NUL).
# The sites of modification arising exclusively via nitrene formation on irradiation of AzAt was first identified by the mutation rate fold change of PAL vs. PRE samples, a procedure which corrects for mutation rates arising from noncovalent binding, or covalent photoincorporation of pre-photolyzed AzAt, or uv-induced mutations not related to AzAt (Table 4). The results obtained for the ≥6,006 nucleotides present in these two complexes are presented in FIG. 3A, FIG. 3B, FIG. 3C and FIG. 3D. […]
SMILES,effect on peptide release (fluorescence anisotropy change) [1],"mutation rate change, 26S-A1437 [2] [fold]","mutation rate change, 26S-A1438 [2] [fold]","mutation rate change, IRES-A142 [2] [fold]","mutation rate change, IRES-G186 [2] [fold]","mutation rate change, IRES-U177 [2] [fold]","mutation rate fold-increase PAL vs. PRE, 18S-A1195 ([2]; in both complexes) [fold]"
O=C(O)c1cccc(-c2noc(-c3ccccc3F)n2)c1 [Ataluren],inhibited peptide release,–,–,–,–,–,–
[N-]=[N+]=Nc1ccc(-c2nc(-c3cccc(C(=O)O)c3)no2)cc1 [AzAt],–,1.4,1.3,1.4,2.0,2.4,~9
